In ChEMBL document CHEMBL1201862, “PubChem BioAssay data set” (2004):
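All cell lines were grown in 96-well plates and treated with compound for 48 hours. Abbreviation: GI50, concentration required for 50% inhibition of growth.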 Activity calls are given as the source filed them. No stated cut-off is given here; in the data, active = GI50 up to about 1.1 µM and inactive = higher.

Columns and labels:
Experiment in all cases: inhibition of tumour cell growth, NCI panel, 48 h
[1] = tested on: A498
[2] = tested on: A549
[3] = tested on: CCRF-CEM
[4] = tested on: EKVX
[5] = tested on: HCC 2998
[6] = tested on: HCT-116
[7] = tested on: HOP-62
[8] = tested on: Hs-578T
[9] = tested on: OVCAR-5
[10] = tested on: PC-3
[11] = tested on: SF-268
[12] = tested on: SK-MEL-2
[13] = tested on: SK-MEL-5
[14] = tested on: SK-OV-3
[15] = tested on: SR
[16] = tested on: SW-620
[17] = tested on: TK-10
[18] = tested on: U-251
[19] = tested on: UACC-257
[20] = tested on: UO-31

| SMILES | GI50 [1] | GI50 [2] | GI50 [3] | GI50 [4] | GI50 [5] | GI50 [6] | GI50 [7] | GI50 [8] | GI50 [9] | GI50 [10] | GI50 [11] | GI50 [12] | GI50 [13] | GI50 [14] | GI50 [15] | GI50 [16] | GI50 [17] | GI50 [18] | GI50 [19] | GI50 [20] |
| --- | --- | --- | --- | --- | --- | --- | --- | --- | --- | --- | --- | --- | --- | --- | --- | --- | --- | --- | --- | --- |
| Cc1ccc2c(c1)CC1(Cc3cc(C)ccc3C1=O)C2=O | > 100 µM (inactive) | > 100 µM (inactive) | > 100 µM (inactive) | > 100 µM (inactive) | > 100 µM (inactive) | > 100 µM (inactive) | > 100 µM (inactive) | > 100 µM (inactive) | > 100 µM (inactive) | > 100 µM (inactive) | > 100 µM (inactive) | > 100 µM (inactive) | > 100 µM (inactive) | > 100 µM (inactive) | > 100 µM (inactive) | > 100 µM (inactive) | > 100 µM (inactive) | > 100 µM (inactive) | > 100 µM (inactive) | > 100 µM (inactive) |
| Cc1cc(/N=C/c2ccc(N(C)C)cc2)n(-c2ccccc2)n1 | 26.1 µM (inactive) | 42.4 µM (inactive) | 22.2 µM (inactive) | 57.8 µM (inactive) | 20.1 µM (inactive) | 25.5 µM (inactive) | 17 µM (inactive) | 29.9 µM (inactive) | > 100 µM (inactive) | 48.4 µM (inactive) | 74.3 µM (inactive) | > 100 µM (inactive) | 40.2 µM (inactive) | 20.2 µM (inactive) | 19.1 µM (inactive) | 34.9 µM (inactive) | 46.8 µM (inactive) | 27.4 µM (inactive) | 91.4 µM (inactive) | > 100 µM (inactive) |
| N#C/C=C1\C=CC(O)C(O)C1OC1OC(CO)C(O)C(O)C1O (stereo not given) | > 100 µM (inactive) | > 100 µM (inactive) | > 100 µM (inactive) | > 100 µM (inactive) | > 100 µM (inactive) | > 100 µM (inactive) | > 100 µM (inactive) | > 100 µM (inactive) | > 100 µM (inactive) | > 100 µM (inactive) | > 100 µM (inactive) | > 100 µM (inactive) | > 100 µM (inactive) | > 100 µM (inactive) | > 10 µM (inactive) | > 100 µM (inactive) | > 100 µM (inactive) | > 100 µM (inactive) | > 100 µM (inactive) | > 100 µM (inactive) |
| Cc1cc2c(c3oc(C(O)(CO)C4CO4)cc(=O)c13)C(=O)c1c(O)cccc1C2=O (stereo not given) | 0.00212 µM (active) | 0.00149 µM (active) | 4.14e-05 µM (active) | 0.0023 µM (active) | 0.00131 µM (active) | 0.000363 µM (active) | 0.00147 µM (active) | 0.00436 µM (active) | 0.00229 µM (active) | 0.000841 µM (active) | 0.00156 µM (active) | 0.00151 µM (active) | 0.002 µM (active) | 0.00188 µM (active) | 0.000213 µM (active) | 0.000377 µM (active) | 0.00244 µM (active) | 0.000826 µM (active) | 0.00279 µM (active) | 0.000154 µM (active) |
| CCC1(O)CC(OC2CC(N(C)C)C(OC3CC(O)C(OC4OC(C)C(=O)C=C4N)C(C)O3)C(C)O2)c2c(O)c3c(c(O)c2C1C(=O)OC)C(=O)c1cccc(O)c1C3=O (stereo not given) | 0.00105 µM (active) | 0.00356 µM (active) | 0.00284 µM (active) | 0.0103 µM (active) | 0.0302 µM (active) | 0.000617 µM (active) | 0.0239 µM (active) | 0.0309 µM (active) | 0.00792 µM (active) | 0.00535 µM (active) | 0.0925 µM (active) | 0.00927 µM (active) | 0.00417 µM (active) | 0.00274 µM (active) | 0.00413 µM (active) | 0.00225 µM (active) | 0.0168 µM (active) | 0.00336 µM (active) | 0.00836 µM (active) | 0.0472 µM (active) |
